Laboratory results as given in patent US7153869B2, “Substituted amino acids as erythropoietin mimetics” (priority 1998, dated 2006).
Read-outs that look alike come from different tables or passages of the source.

Molecular target: T1, EBP-Ig (N-terminal 225 amino acids of the human EPO receptor joined to an Ig heavy chain) (Homo sapiens, UniProt P19235)
T1 construct: Ig heavy chain (fusion partner); made in house; host or cells: NSO cells (secreted into conditioned media)
T1 sequence (P19235 25-250 limits assumed): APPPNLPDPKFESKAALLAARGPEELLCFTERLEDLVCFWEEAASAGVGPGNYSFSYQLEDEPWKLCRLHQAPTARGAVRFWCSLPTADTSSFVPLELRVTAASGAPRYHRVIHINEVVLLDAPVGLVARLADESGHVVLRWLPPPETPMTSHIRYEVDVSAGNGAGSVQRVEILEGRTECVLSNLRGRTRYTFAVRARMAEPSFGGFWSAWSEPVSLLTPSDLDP
Assay: Inhibition of [125I]EPO binding to immobilized EBP-Ig (EPO binding protein-Ig), scintillation Flash plate competition assay
Conditions: for % inh @ 50 μM (Inhibition of EPO binding to EBP-Ig): 50 μM test compound, average % inhibition; for IC30 μM (Inhibition of EPO binding to EBP-Ig): 0–500 μM test compound
Source text: The interaction of biotin and streptavidin is frequently employed to capture and effectively immobilize reagents useful in assay protocols and has been employed here as a simple method to capture and immobilize EBP-Ig. EBP-Ig is initially randomly modified with an amine reactive derivative of biotin to produce biotinylated-EBP-Ig. Use of streptavidin coated plates allows the capture of the biotinylated EBP-Ig on the surface of a scintillant impregnated coated well (Flash plates, NEN-DuPont). […] The amount of light produced was quantified to estimate the amount of ligand binding. The specific assay format was suitable for the multi-well plate capacity of a Packard TopCount Microplate Scintillation counter.
Biotinylated EBP-Ig was prepared as follows. EBP-Ig (3 mL, OD280 2.9) was exchanged into 50 mM sodium bicarbonate, pH 8.5 using a Centriprep 10 ultrafiltration device. The final volume of the exchanged protein was 1.2 mL (OD280 2.6, representing about 2 mg total protein). 10 μL of a 4 mg/ml solution of NHS-LC-Biotin (Pierce) was added and the reaction mixture placed on ice in the dark for two hours. Unreacted biotin was removed by exchange of the reaction buffer into PBS in a Centriprep 10 device and the protein reagent aliquoted and stored at −70° C.
All wells were adjusted to a final DMSO concentration of 5%. […] After all additions were made, the plate was covered with an adhesive top seal and placed in the dark at room temperature overnight. The next day all liquid was aspirated from the wells to limit analyte dependent quench of the signal, and the plates were counted on a Packard TOPCOUNT Microplate Scintillation Counter. […] Corrected total binding (CTB) was calculated as: TB−NSB=CTB. […] Table 1 lists the average % inhibition, and if determined the IC50 and IC30 values for compounds of Formula I, where the compound numbers refer to the compounds in the tables accompanying the preparative examples.

[1] = 50 μM compound, Table 10, 50 µM
[2] = read-out: % inh @ 50 μM (Inhibition of EPO binding to EBP-Ig)
[3] = read-out: EPO/EBP-Ig % inh @ 50 μM, 50 μM compound, Table 10
[4] = read-out: IC50, μM (Inhibition of EPO binding to EBP-Ig), 0.5 nM [125I]EPO, concentration reducing corrected total binding to 50%
[5] = read-out: EPO/EBP-Ig % inh @ 50 μM, Table 11, 50 μM

SMILES | % inh @ 50 μM (Inhibition of EPO binding to EBP-Ig) (0.5 nM [125I]EPO) [%] | IC30 μM (Inhibition of EPO binding to EBP-Ig) (0.5 nM [125I]EPO) [µM] | EPO/EBP-Ig % inh @ 50 μM (50 μM compound, Table 10) [%] | further results
COC(=O)C(CCCCNC(=O)OC(C)(C)C)N(C/C=C/c1ccc([N+](=O)[O-])cc1)C/C=C/c1ccc([N+](=O)[O-])cc1 (stereo not shown) [compound 178] | 36 | – | – | EPO/EBP-Ig % inh @ 50 μM (50 μM compound, Table 9): 36%
CC(C)(C)OC(=O)NCCCCC(C(=O)O)N(C/C=C/c1ccc([N+](=O)[O-])cc1)C/C=C/c1ccc([N+](=O)[O-])cc1 (stereo not shown) [compound 179] | 30 | – | – | EPO/EBP-Ig % inh @ 50 μM (50 μM compound, Table 9): 30%
COC(=O)C(CCCCNC(=O)OC(C)(C)C)N(C/C=C/c1cccc(Oc2ccccc2)c1)C/C=C/c1cccc(Oc2ccccc2)c1 (stereo not shown) [compound 180] | – | – | – | EPO/EBP-Ig % inh @ 50 μM (50 μM compound, Table 9): −4%
COC(=O)C(CCCCNC(=O)OC(C)(C)C)N(C/C=C/c1cccc(Oc2ccc(C(C)(C)C)cc2)c1)C/C=C/c1cccc(Oc2ccc(C(C)(C)C)cc2)c1 (stereo not shown) [compound 181] | – | – | – | EPO/EBP-Ig % inh @ 50 μM (50 μM compound, Table 9): −9%
COC(=O)C(CCCCN)N(C/C=C/c1cccc(Oc2ccc(C(C)(C)C)cc2)c1)C/C=C/c1cccc(Oc2ccc(C(C)(C)C)cc2)c1 (stereo not shown) [compound 182] | – | – | – | EPO/EBP-Ig % inh @ 50 μM (50 μM compound, Table 9): 18%
COC(=O)C(CCCCNC(=O)OC(C)(C)C)N(C/C=C/c1cccc([N+](=O)[O-])c1)C/C=C/c1cccc([N+](=O)[O-])c1 (stereo not shown) [compound 183] | 36 | – | – | EPO/EBP-Ig % inh @ 50 μM (50 μM compound, Table 9): 36%
COC(=O)C(CCCCN)N(C/C=C/c1cccc([N+](=O)[O-])c1)C/C=C/c1cccc([N+](=O)[O-])c1 (stereo not shown) [compound 184] | 53 | 10 | – | EPO/EBP-Ig % inh @ 50 μM (50 μM compound, Table 9): 53%
COC(=O)C(CCCCN)N(C/C=C/c1cccc(N)c1)C/C=C/c1cccc(N)c1 (stereo not shown) [compound 185] | – | – | – | EPO/EBP-Ig % inh @ 50 μM (50 μM compound, Table 9): 29%
CCCCNC(=O)C(CCCCN)N(C/C=C/c1ccccc1)C/C=C/c1ccccc1 (stereo not shown) [compound 205] | – | – | 26 | –
CCCCNC(=O)C(CCCCNC(=O)c1ccccc1OC)N(C/C=C/c1ccccc1)C/C=C/c1ccccc1 (stereo not shown) [compound 206] | – | – | – | EPO/EBP-Ig % inh @ 50 μM [1]: 17%
CCCCNC(=O)C(CCCCNC(=O)c1ccc(OC)cc1)N(C/C=C/c1ccccc1)C/C=C/c1ccccc1 (stereo not shown) [compound 207] | – | – | 20 | –
CCCCNC(=O)C(CCCCNC(=O)c1ccccc1)N(C/C=C/c1ccccc1)C/C=C/c1ccccc1 (stereo not shown) [compound 208] | – | – | 22 | –
CCCCNC(=O)C(CCCCNC(=O)c1ccccc1OC)N(C/C=C/c1ccccc1)C/C=C/c1ccccc1 (stereo not shown) [compound 209] | – | – | – | EPO/EBP-Ig % inh @ 50 μM [1]: 25%
COc1ccc(CCNC(=O)C(CCCCN)N(CC=Cc2ccccc2)CC=Cc2ccccc2)cc1 (stereo not shown) [compound 211] | – | 20 | – | inhibition at 50 µM [2]: 62%; inhibition at 50 µM [3]: 62%; IC50 [4]: 65 µM
CCCNC(=O)C(CCCCN)N(C/C=C/c1ccccc1)C/C=C/c1ccccc1 (stereo not shown) [compound 212] | – | – | −10 | –
CC(C)(C)OC(=O)NCCCCC(C(=O)NCc1ccc(OCC=Cc2ccccc2)cc1)N(CC=Cc1ccccc1)CC=Cc1ccccc1 (stereo not shown) [compound 216] | – | – | 10 | –
NCCCCC(C(=O)NCc1ccc(OCC=Cc2ccccc2)cc1)N(CC=Cc1ccccc1)CC=Cc1ccccc1 (stereo not shown) [compound 220] | 45 | 30 | 45 | IC50 [4]: 50 µM
COc1ccc(CCNC(=O)C(CCCCN)N(C/C=C/c2ccccc2)C/C=C/c2ccccc2)cc1OC (stereo not shown) [compound 221] | 48 | 10 | 48 | IC50 [4]: 80 µM

SMILES | % inh @ 50 μM (Inhibition of EPO binding to EBP-Ig) (0.5 nM [125I]EPO) [%] | IC30 μM (Inhibition of EPO binding to EBP-Ig) (0.5 nM [125I]EPO) [µM] | EPO/EBP-Ig % inh @ 50 μM (50 μM compound, Table 10) [%] | further results
COc1cccc(CCNC(=O)C(CCCCN)N(C/C=C/c2ccccc2)C/C=C/c2ccccc2)c1 (stereo not shown) [compound 222] | 56 | 5 | 56 | –
COc1ccccc1CCNC(=O)C(CCCCN)N(CC=Cc1ccccc1)CC=Cc1ccccc1 (stereo not shown) [compound 224] | – | 25 | – | inhibition at 50 µM [2]: 51%; inhibition at 50 µM [3]: 51%; IC50 [4]: 50 µM
COc1ccc(CCNC(=O)C(CCCCNC(=O)OC(C)(C)C)N(C/C=C/c2cccc(Oc3ccccc3)c2)C/C=C/c2cccc(Oc3ccccc3)c2)cc1 (stereo not shown) [compound 225] | – | – | 10 | –
NCCCCC(C(=O)NCCc1ccccc1)N(CC=Cc1ccccc1)CC=Cc1ccccc1 (stereo not shown) [compound 227] | – | 20 | – | inhibition at 50 µM [2]: 48%; inhibition at 50 µM [3]: 48%; IC50 [4]: 50 µM
COc1ccc(CCNC(=O)C(CCCCNC(=O)Nc2ccccc2)N(C/C=C/c2cccc(Oc3ccccc3)c2)C/C=C/c2cccc(Oc3ccccc3)c2)cc1 (stereo not shown) [compound 228] | – | – | 21 | –
COc1ccc(CCNC(=O)C(CCCCNC(=O)Nc2ccc(Oc3ccccc3)cc2)N(C/C=C/c2ccccc2)C/C=C/c2ccccc2)cc1 (stereo not shown) [compound 229] | – | – | 22 | –
COc1ccc(CCNC(=O)C(CCCCNC(=O)Nc2ccc(Cl)c(Cl)c2)N(C/C=C/c2ccccc2)C/C=C/c2ccccc2)cc1 (stereo not shown) [compound 230] | 42 | – | 42 | –
CCOC(=O)c1ccc(NC(=O)NCCCCC(C(=O)NCCc2ccc(OC)cc2)N(C/C=C/c2ccccc2)C/C=C/c2ccccc2)cc1 (stereo not shown) [compound 231] | 36 | – | 36 | –
COc1ccc(CCNC(=O)C(CCCCNC(=O)Nc2ccc(Oc3ccccc3)cc2)N(C/C=C/c2cccc(Oc3ccccc3)c2)C/C=C/c2cccc(Oc3ccccc3)c2)cc1 (stereo not shown) [compound 232] | – | – | 14 | –
COc1cccc(CCNC(=O)C(CCCCN)N(C/C=C/c2ccc([N+](=O)[O-])cc2)C/C=C/c2ccc([N+](=O)[O-])cc2)c1 (stereo not shown) [compound 233] | – | – | 18 | –
NCCCCC(C(=O)NCc1ccccc1)N(CC=Cc1ccccc1)CC=Cc1ccccc1 (stereo not shown) [compound 235] | – | 20 | – | inhibition at 50 µM [2]: 49%; inhibition at 50 µM [3]: 49%; IC50 [4]: 50 µM
COc1cccc(CCNC(=O)C(CCCCNC(=O)CCC(=O)O)N(CC=Cc2ccccc2)CC=Cc2ccccc2)c1 (stereo not shown) [compound 237] | – | 30 | – | inhibition at 50 µM [2]: 55%; inhibition at 50 µM [3]: 55%; IC50 [4]: 70 µM
COc1ccc(CCNC(=O)C(CCCCN)N(C/C=C/c2ccc(-c3ccccc3)cc2)C/C=C/c2ccc(-c3ccccc3)cc2)cc1 (stereo not shown) [compound 238] | 39 | – | 39 | –
NCCCCC(C(=O)NCCc1ccccc1)N(C/C=C/c1cccc(Oc2ccccc2)c1)C/C=C/c1cccc(Oc2ccccc2)c1 (stereo not shown) [compound 239] | 46 | 8 | 46 | IC50 [4]: 50 µM
CC(C)(C)OC(=O)CC(C(=O)NCCCOCCCCOCCCNC(=O)C(CC(=O)OC(C)(C)C)N(Cc1ccc(OCc2ccccc2)cc1)Cc1ccc(OCc2ccccc2)cc1)N(Cc1ccc(OCc2ccccc2)cc1)Cc1ccc(OCc2ccccc2)cc1 (stereo not shown) [compound 241] | – | – | – | EPO/EBP-Ig % inh @ 50 μM (Table 11, 50 μM): 2%
CC(C)(C)OC(=O)CC(C(=O)NCCCOCCOCCOCCCNC(=O)C(CC(=O)OC(C)(C)C)N(Cc1ccc(OCc2ccccc2)cc1)Cc1ccc(OCc2ccccc2)cc1)N(Cc1ccc(OCc2ccccc2)cc1)Cc1ccc(OCc2ccccc2)cc1 (stereo not shown) [compound 242] | – | – | – | EPO/EBP-Ig % inh @ 50 μM (Table 11, 50 μM): 1%
O=C(O)CC(C(=O)NCCCOCCCCOCCCNC(=O)C(CC(=O)O)N(Cc1ccc(OCc2ccccc2)cc1)Cc1ccc(OCc2ccccc2)cc1)N(Cc1ccc(OCc2ccccc2)cc1)Cc1ccc(OCc2ccccc2)cc1 (stereo not shown) [compound 243] | – | 2 | – | IC50: 18 µM; inhibition at 50 µM [2]: 75%; inhibition at 50 µM [5]: 75%
O=C(O)CC(C(=O)NCCCOCCOCCOCCCNC(=O)C(CC(=O)O)N(Cc1ccc(OCc2ccccc2)cc1)Cc1ccc(OCc2ccccc2)cc1)N(Cc1ccc(OCc2ccccc2)cc1)Cc1ccc(OCc2ccccc2)cc1 (stereo not shown) [compound 244] | – | 1 | – | IC50: 28 µM; inhibition at 50 µM [2]: 66%; inhibition at 50 µM [5]: 66%
